Data on 2 molecules can be found in patent publication US5849735A, “Tricyclic benzazepine vasopressin antagonists” (American Cyanamid Company, priority 1995, dated 1998).

Each structure is given as a SMILES string. pIC50: −log10 of the molar value.

Assay [1] has as its target T1, vasopressin V1 receptor (human platelet membranes) (Homo sapiens, UniProt P37288).
T1 construct: tissue Hudson Valley Blood Services; host or cells: human platelets (frozen platelet rich plasma)
The assay can be described thus: Binding to Vasopressin V1 receptor subtype in Human Platelet Membranes. Here is the method:
Radioligand Binding Experiments with Human Platelet Membranes
(a) Platelet Membrane Preparation
Frozen platelet rich plasma (PRP), received from the Hudson Valley Blood Services, are thawed to room temperature. (Platelet Source: Hudson Valley Blood Services, Westchester Medical Center, Valhalla, N.Y.). The tubes containing the PRP are centrifuged at 16,000×g for 10 minutes at 4° C. and the supernatant fluid discarded. The platelets resuspended in an equal volume of 50.0 mM Tris.HCL, pH 7.5 containing 120 mM NaCl and 20.0 mM EDTA. The suspension is recentrifuged at 16,000×g for 10 minutes. This washing step is repeated one more time. The wash discarded and the lysed pellets homogenized in low ionic strength buffer of Tris. HCl, […], pH 7.5 containing 5.0 mM EDTA. The homogenate is centrifuged at 39,000×g for 10 minutes. The resulting pellet is resuspended in Tris.HCl buffer, 70.0 mM, pH 7.5 and recentrifuged at 39,000×g for 10 minutes. […]
In wells of a 96 well format microtiter plate, add 100 ml of 50.0 mM Tris. […] Non specific binding is measured in the presence of 1.0 mM of unlabeled ligand (Manning or Arg^8 Vasopressin). […] The radioactivity caught on the filter disks is determined by the addition of liquid scintillant and counting in a liquid scintillator.

Assay [2] has as its target T2, human V2 vasopressin receptor (Homo sapiens, UniProt P30518).
T2 construct: expressed in transfected cells; host or cells: mouse fibroblast cell line LV-2
Briefly: Binding to Membranes of Mouse Fibroblast Cell Line (LV-2) Transfected with the cDNA Expressing the Human V2 Vasopressin Receptor. Here is the method:
Binding to Membranes of Mouse Fibroblast Cell Line (LV-2) Transfected with the cDNA Expressing the Human V2 Vasopressin Receptor
Flasks of 175 ml capacity, continuing attached cells grown to confluence, are cleared of culture medium by aspiration. The flasks containing the attached cells are rinsed with 2×5 ml of phosphate buffered saline (PBS) and the liquid aspirated off each time. […] The protein content is determined by the Lowry method and the receptor membranes are suspended in 50.0 mM Tris.HCl buffer containing 0.1 mM phenylmethylsulfonylfluoride (PMSF) and 0.2% bovine serum albumin (BSA) to give 2.5 mg receptor protein per ml of suspension.
For binding experiments, the following is added in ml volume to wells of a 96 well format of a microtiter plate: 100.0 ml of 100.0 mM Tris.HCl buffer containing 0.2% heat inactivated BSA, 10.0 mM MgCl2 and a mixture of protease inhibitors: leupeptin, 1.0 mg %; aprotinin, 1.0 mg %; 1,10-phenanthroline, 2.0 mg %; trypsin inhibitor, 10.0 mg % and 0.1 mM PMSF., 20.0 ml of [^3 H] […] Non specific binding is assessed in the presence of 1.0 mM of unlabeled ligand, added in 20 ml volume. […] The radioactivity trapped on the filter disk by the ligand-receptor complex is assessed by liquid scintillation counting in a Packard LS Counter, with an efficiency of 65% for tritium.

T1 sequence (P37288 whole entry): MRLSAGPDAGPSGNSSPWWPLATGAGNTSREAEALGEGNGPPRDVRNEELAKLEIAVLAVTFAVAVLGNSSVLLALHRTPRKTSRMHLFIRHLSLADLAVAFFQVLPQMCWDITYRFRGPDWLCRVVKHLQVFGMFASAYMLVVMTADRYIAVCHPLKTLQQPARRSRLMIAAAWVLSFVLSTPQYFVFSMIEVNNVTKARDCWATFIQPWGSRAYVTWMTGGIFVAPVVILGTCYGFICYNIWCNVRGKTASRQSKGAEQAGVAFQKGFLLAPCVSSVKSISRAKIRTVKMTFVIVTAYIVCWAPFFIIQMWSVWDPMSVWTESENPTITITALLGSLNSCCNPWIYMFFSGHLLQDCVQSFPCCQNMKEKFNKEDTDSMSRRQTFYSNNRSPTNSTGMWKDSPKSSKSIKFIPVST
T2 sequence (P30518 whole entry): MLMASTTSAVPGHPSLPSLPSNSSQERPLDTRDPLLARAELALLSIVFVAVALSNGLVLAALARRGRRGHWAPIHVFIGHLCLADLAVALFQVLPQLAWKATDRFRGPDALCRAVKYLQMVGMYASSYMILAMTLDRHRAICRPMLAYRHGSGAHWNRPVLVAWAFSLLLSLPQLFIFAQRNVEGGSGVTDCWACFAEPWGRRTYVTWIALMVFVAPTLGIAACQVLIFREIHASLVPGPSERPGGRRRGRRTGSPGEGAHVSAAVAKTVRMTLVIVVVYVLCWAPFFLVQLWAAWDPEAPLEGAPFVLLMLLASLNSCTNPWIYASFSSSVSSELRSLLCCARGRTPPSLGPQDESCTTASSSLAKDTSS

Regarding `CCCCOc1ccc(C(=O)N2Cc3ccccc3Cc3ccccc32)cc1` [Example 24], the “V1 %” value in assay [1] ("(μM)" (concentration not given), 90 min) is listed as 72%. For the same molecule, the inhibition (commonly the percentage by which the read-out fell short of the control) at 10 µM in assay [2] (** human V2, LV-2 membranes, 10 μM) is 26%.

Consider `O=C(c1ccc(-c2ccccc2)cc1)N1Cc2sccc2Cc2ccccc21` [Example 27, 9-([1,1'-Biphenyl]-4-ylcarbonyl)-9,10-dihydro-4H-thieno[2,3-c][1]benzazepine], for which the negative logarithm of the IC50 (pIC50) – broadly, −log10 of the IC50, conventionally taken in molar units – was 7.85 in assay [1] and 5.74 in assay [2] (** human V2 receptor, LV-2 membranes).
